Measurements reported in patent US12618835B2, “Multiplex microelectrode array for detection of proteases as biomarkers” (Kansas State University Research Foundation, priority 2021, dated 2026).
Where no end group is shown, it is not given here. [ ]: non-standard residue; d: D form. The star is where a group is joined. aminomethylferrocene = [Fe+2].c1cc[c-](CN*)c1.c1cc[cH-]c1; Ava = NCCCCC(=O)O

Test system: cathepsin B in human serum
Test: Electrochemical (ACV) proteolysis of peptide-Fc on Au MEA by diluted human serum, with and without spiked rhCB
Type: biochemical
Description: Electrochemical Experiments. Electrochemical experiments were performed on a specially designed electrochemical cell mounted on a large copper block for temperature control by circulating thermostatic silicone liquid through the internal channels. The thermal circulator (Julabo, Allentown, PA) was set to achieve a temperature of 38.6° C. Two buffer solutions, 0.5×PB (pH=7.4) and 25 mM MES (pH=5.0), were used. In some experiments, the rhCB was activated by incubation in 25 mM MES buffer (pH=5.0) containing 5 mM DTT for 15 min. About 10 uL activated cathepsin B solution was added to the electrochemical cell containing 815 uL buffer solution (i.e., 0.5×PB with pH=7.4) as the electrolyte. Fc signal on the Au surface was detected by alternating current voltammetry (ACV) with an AC frequency of 300 Hz and a voltage amplitude of 100 mV on a DC ramp from −0.45 V to 0.20 V vs. MSE. Electrochemical measurements were performed using an IVIUM n-Stat potentiostat (Eindhoven, The Netherlands), which allows measurement of up to ten independent working electrodes simultaneously versus a common MSE reference electrode and a common Pt coil counter electrode.
Electrochemical Detection of Cathepsin B Activity in Human Serum. To assess the activity of cathepsin B in HS, we compared the kinetic proteolysis curves of 5% HS in 0.5×PB with and without activation by the electrochemical method. The 5% HS concentration is slightly higher than the 2.5% used in ELISA measurements to ensure that a clear exponential decay can be observed in electrochemical experiments. To minimize errors, three Au MEA chips were prepared side-by-side for three sets of experiments, i.e., (i) non-activated 5% HS in 0.5×PB, (ii) activated 5% HS in 0.5×PB, and (iii) the blank 0.5×PB. […] Based on equation (2), the concentration of the active form of cathepsin B in non-activated and activated sample (equivalent to 100% HS) can be calculated by: […]
Electrochemical Assessment of Effective Cathepsin B Activity Spiked in Human Serum. […] The data were recorded over 8 channels of the peptide-Fc modified Au MEA simultaneously. […]

Substance: H2N-(CH2)4-CO-Pro-Leu-Ala-Phe-Val-Ala-NH-CH2-Fc ([Ava]PLAFVA-aminomethylferrocene) [Peptide H-15]
- 1/τ (activated 5% HS in 0.5×PB (DTT/MES), 8 channels): (33.2±3.0)×10^−4 s^−1
- 1/τ (non-activated 5% HS in 0.5×PB spiked with 0.40 nM naturally active cathepsin B (1.0 nM non-activated rhCB)): (12.99±1.66)×10^−4 s^−1
- 1/τ (non-activated 5% HS in 0.5×PB spiked with 1.0 nM activated cathepsin B): (68.4±7.53)×10^−4 s^−1
